Series [1] relates to MPO. Particulars: ref [31]; cited from earlier work. From the text: The positively charged character of arginine played a key role, since substitu ...
In series [2] the test system is MPO active site. Particulars: computational docking; ref [31]; cited from earlier work. The text has this: To react with MPO, a peptide residue has to closely approach to the active site. The active site heme group of MPO is located in a crevice (~15 Å in depth) with a channel (~10 Å in diameter) which opens into the distal cavity. Only H2O2 and small anions have ready access to the iron atom. Other compounds that are oxidized by MPO via the peroxidase cycle bind in the binding site at the entrance to the distal cavity. […] Despite concerns rais ...

The target of series [3] is T1, myeloperoxidase (MPO) (Homo sapiens, UniProt P05164).
T1 construct: Native myeloperoxidase (MPO) was obtained from human leukocyte extract by successive chromatography on heparin-Sepharose and phenyl-agarose; from tissue; host or cells: human leukocyte extract
T1 sequence (P05164 279-745 limits assumed): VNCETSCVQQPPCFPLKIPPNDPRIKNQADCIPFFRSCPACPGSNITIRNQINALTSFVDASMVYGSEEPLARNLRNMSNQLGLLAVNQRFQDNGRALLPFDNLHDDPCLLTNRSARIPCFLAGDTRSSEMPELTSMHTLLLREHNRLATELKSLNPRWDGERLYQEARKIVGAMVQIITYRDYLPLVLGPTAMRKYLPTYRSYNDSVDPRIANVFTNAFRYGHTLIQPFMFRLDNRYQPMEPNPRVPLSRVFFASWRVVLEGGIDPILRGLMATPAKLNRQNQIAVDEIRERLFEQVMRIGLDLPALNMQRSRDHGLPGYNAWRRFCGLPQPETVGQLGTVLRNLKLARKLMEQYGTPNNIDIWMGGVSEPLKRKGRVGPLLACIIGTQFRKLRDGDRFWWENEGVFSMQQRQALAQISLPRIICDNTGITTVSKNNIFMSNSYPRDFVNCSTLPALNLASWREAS
T1 sequence (P05164 165-273 limits assumed): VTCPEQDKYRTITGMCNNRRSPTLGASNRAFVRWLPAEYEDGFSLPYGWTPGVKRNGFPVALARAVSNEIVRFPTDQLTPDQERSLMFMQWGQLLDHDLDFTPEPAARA
In words: MPO peroxidase activity (Amplex Red assay). Format: biochemical. To be noted: 0.8–50 μM peptide, 8 nM MPO heme, 50 μM Amplex Red, 25 μM H2O2, 50 mM K-phosphate pH 7.4. The method, then: MPO peroxidase activity was evaluated fluorometrically using Amplex Red^TM reagent which was oxidized by MPO to the fluorescent resorufin (λex = 530 nm, λem = 590 nm). The assay was performed in 96-plate format. The final reaction mixture in 50 mM K-phosphate buffer (pH 7.4) was as follows: MPO, 8 nM heme; peptide, […]; H2O2, 25 μM; Amplex Red reagent, 50 μM. MPO was preincubated with peptides for 5 min in a volume of 100 μl. Then, Amplex Red was added, and the enzymatic reaction was initiated by adding H2O2 (a final probe volume of 200 μL per well). The fluorescence measurement was made with a CLARIOstar multimodal plate reader (BMG Labtech, Ortenberg, Germany) at 5 min after the beginning of the reaction. To determine the type of CAMP-induced inhibition, KM and Vmax were obtained by varying substrates of MPO: Amplex Red in a final concentration from 1 to 62.5 μM, or H2O2 in a final concentration from 0.625 to 20 μM.
(§1) The Hannes-Wolf plots were made as ([Substrate]/V = f([Substrate]). KM was equal in magnitude to the intercept made on the abscissa axis by the approximating straight line; Vmax was calculated as a reciprocal value of the straight-line slope. The inhibition constant (Ki) for noncompetitive inhibition was calculated as follows: Ki = [I]/((Vmax − Vmax’)/Vmax’); Ki for competitive inhibition was calculated as follows: Ki = [I]/((KM’ − KM)/KM); Ki for mixed inhibition was calculated as follows: Ki = [I]/(((KM’ − KM)/KM)^2 + ((Vmax − Vmax’)/Vmax’))^2)^0.5; and Ki for uncompetitive inhibition was calculated as follows: Ki = [I]/(((KM − KM’)/KM’)^2 + ((Vmax – Vmax’)/Vmax’))^2)^0.5, where [I]—concentration of inhibitor (CAMP), KM—Michaelis constant without inhibitor, Vmax—maximal rate without inhibitor, KM’—Michaelis constant in the presence of inhibitor, Vmax’—maximal rate in the presence of inhibitor.
From the experiments with varying concentrations of H2O2 (0.01–200 μM) and Amplex Red (6.25–100 μM), the optimal concentrations of 25 μM H2O2 and 50 μM Amplex Red were chosen for further work. The 0.8–50 μM concentration range (corresponding to 100–6250 peptide molecules per heme) was used to determine the concentration dependence of the effect of CAMPs on peroxidase activity of MPO.

Series [4] deals with T1, myeloperoxidase (MPO). In words: MPO chlorinating activity (Celestine Blue B assay). The class given is biochemical. To be noted: 0.008–8 μM peptide, 0.8 nM MPO heme, 200 μM CB, 150 mM NaCl, 50 μM H2O2, 50 mM Na-acetate pH 5.5. On the procedure:
MPO chlorinating activity was evaluated fluorometrically using Celestine Blue B (CB) which was oxidized to fluorescent glycol (λex = 487 nm, λem = 578 nm) by taurine N-chloramine produced in the reaction of taurine with HOCl generated by MPO [39]. The assay was performed in 96-plate format. MPO was preincubated with peptides for 5 min in a volume of 100 μL, with the concentrations being: MPO, 1.6 nM heme and peptide, 16 nM–16 μM. Then, 100 μL aliquots of CB-containing mix (CB, 400 µM; H2O2, 100 µM; taurine, 4 mM; KI, 10 µM; NaCl, 300 mM; 50 mM Na-acetate buffer, pH 5.5) were added to MPO/peptide and to 100 μL of HOCl standards (0–150 μM). The fluorescence measurement was made with a CLARIOstar multimodal plate reader (BMG Labtech, Ortenberg, Germany) at 15 min after the reaction started. Fluorescence intensity detected for HOCl standards of HOCl was used for calculating the chlorinating activity as mole of HOCl per mole of MPO heme per second. To determine the type of CAMP-induced inhibition, KM and Vmax were obtained by varying substrates of MPO: NaCl in a final concentration from 25 to 300 mM, or H2O2 in a final concentration from 5 to 80 µM.
as §1
Chlorinating activity is a distinctive feature of MPO as compared with other peroxidases and it is an important property, enabling MPO to combat microbes. We tested whether the inhibitory effects of pept_1545 and Hm-AMP8 on peroxidase activity extend to MPO chlorinating activity. Chlorinating activity was measured using a fluorometric CB-based assay. To determine the concentration dependence of the effect of CAMPs on MPO chlorinating activity, the 0.008–8 μM concentration range (corresponding to 10–10,000 peptide molecules per heme) was used.

In series [5] the target is T1, myeloperoxidase (MPO). The series can be described thus: MPO heme absorbance spectra (Compound II formation and decay, MPO turnover). Format: biochemical. To be noted: 2 μM MPO heme, 100 μM H2O2, 10 mM Na-phosphate pH 7.4; all concentrations. On the procedure:
Native myeloperoxidase (MPO) was obtained from human leukocyte extract by successive chromatography on heparin-Sepharose and phenyl-agarose followed by gel-filtration on a Sephacryl S-200 HR, as previously described. The Reinheit Zahl value (A430 nm/A280 nm) for the purified protein was 0.85. The MPO concentration was determined as the heme concentration measured spectrophotometrically at 430 nm with a molar extinction coefficient of 91,000 M^−1 cm^−1 [35].
Spectra of MPO were recorded on a Cary 50 Bio UV-Vis spectrophotometer (Varian, Mulgrave, Australia). Experiments were performed with Eppendorf UVette plastic UV/Vis cuvettes (Hamburg, Germany). An MPO concentration was 2 μM heme. MPO was mixed with CAMP in 10 mM Na-phosphate buffer (pH 7.4) supplemented with 0.2 mM DTPA. H2O2 was added as a microvolume of concentrated solution (100 μM final).
To elucidate the influence of CAMPs on MPO catalytic activity, we analyzed absorbance spectral changes for MPO activated by H2O2 in the presence of peptides. The spectra were obtained with 2 μM MPO heme and 100 μM H2O2 in 10 mM Na-phosphate buffer, pH 7.4. All reactions in these and further experiments were performed in buffers supplemented with 0.2 mM diethylenetriaminepentaacetic acid (DTPA) to sequester free transition metal ions to prevent tyrosine and cysteine autooxidation.
Figure 2 Time courses of spectral absorbance changes at 430 nm (indicative of MPO ground state) and 455 nm (indicative of Compound II) in the absence and presence of cationic antimicrobial peptides (CAMPs) in the system MPO/H2O2. The name of CAMP is given in parentheses after the panel designation (A–D). H2O2 (100 µM) was added to MPO (2 µM heme) or MPO preincubated with peptides at different peptide/heme molar ratios for 5 min in 10 mM Na-phosphate buffer, pH 7.4. Spectra were taken before and 0.25 min, 5 min, 10 min, and so on after adding H2O2. The initial absorbance values (before H2O2 addition) are shown as a red square marker. […]

The test system of series [6] is erythrocytes. To be noted: PBS, 1 h, 37 °C, Triton X-100 = 100%.
Procedure: Comparative evaluation of hemolytic activity of the cationic antimicrobial peptides (CAMPs) Hm-
AMP8, pept_1545, Hm-AMP1, and Hm-AMP2 using a hemolysis assay measuring hemoglobin released from
damaged cells. In each group of bars, the final peptide concentration from left to right is 12.5 μM, 25 μM, 50
μM, and 100 μM. For melittin, the left bar – 0.5 μM, and the right bar – 1 μM. A working erythrocyte suspension
(in PBS) was prepared so that its ten -fold dilution gave an optical density of 0.4 at 800 nm (about 30 × 10^6 cells/mL).
Erythrocytes (125 μL) were added to the same volume of PBS containing the peptide. Cells with PBS served as
negative control; cells with Triton X-100 served as positive control wh ich was set to 100%. After 1-h incubation
(with slight shaking) at 37 °C, the samples were centrifuged at 1000 × g for 10 min , the supernatant was
transferred to the wells of a microplate, and the absorbance of hemoglobin was measured by a Multiskan Ascent
plate reader (Thermo Electron Corporation, Vantaa, Finland), with a test wavelength of 414 nm and a
background wavelength of 690 nm. The hemolysis percentage was calculated using the following equation:
Hemolysis (%) = {(sample absorbance – negative control) / (positive control – negative control)} × 100. Data
shown are mean ± SD from three independent experiments using blood from three healthy volunteers, with […]

Entries after “also recorded” stand apart in the source; their conditions may differ. Like-named read-outs stand apart in the source and are kept apart here.

The values that follow come from article PMC9774438, “Effects of Synthetic Short Cationic Antimicrobial Peptides on the Catalytic Activity of Myeloperoxidase, Reducing Its Oxidative Capacity” (Antioxidants, 2022).

Regarding “GRRRRSVQWCA [antimicrobial peptide …, human lactoferrin-derived]”, in series [1], the “inhibition of MPO” value was “inhibiting MPO activity”. Besides, the “binding to MPO active site (docking)” value in series [2] was “binding of the peptide GRRRRSVQWCA to the edge of and within the cleft of the active site”.

With RLKRFKRVALRREKTARNFRSIVS [Hm-AMP1], the “effect on MPO peroxidase activity” value in series [3] is “no inhibition; also recorded: No effect”. Also, in series [4], the “effect on MPO chlorinating activity” value is “no significant effect”. Besides, in series [5], the “effect on H2O2-induced formation and decay of MPO Compound II / MPO turnover (summary)” value is recorded as “no significant effect on MPO cycling”.

Regarding melittin, the Hemolysis result in series [6] (0.5 M (so in the source), three independent experiments) is listed as “about 40%”; in series [6] (1 M (so in the source)) it was “complete hemolysis”.
